Key:
Assay in all cases: relative viability (nuclei count vs DMSO), 5 days (fraction); higher = more cells survive
Motesanib + Dasatinib = compound: CC1(C)CNc2cc(NC(=O)c3cccnc3NCc3ccncc3)ccc21 [Motesanib] + Cc1nc(Nc2ncc(C(=O)Nc3c(C)cccc3Cl)s2)cc(N2CCN(CCO)CC2)n1 [Dasatinib] (partner 0.075 µM)
In short: (§1)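 Relative viability divides the nuclei count in treated wells by that in vehicle wells. Lung cancer cell lines were seeded in 1536-well plates, dosed by pin tool the next day, and fixed and stained after 5 days in one step with final 0.05% Triton X-100, 1% formaldehyde and 1 ug/ml Hoechst. Dosing was a single drug or a fixed anchor-drug dose plus five library-drug doses (not always all listed) in √10 steps, and values are medians of duplicate plates imaged at 4×.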

[1] = compound: C[C@@]1(C(=O)Nc2ccc(F)nc2)CCCN1c1nc(Nc2cc(C3CC3)n[nH]2)c2cccn2n1 + CC(=O)Nc1cccc(-n2c(=O)n(C3CC3)c(=O)c3c(Nc4ccc(I)cc4F)n(C)c(=O)c(C)c32)c1 [Trametinib] (partner 0.02 µM)
In short: as §1

[2] = compound: C[C@@]1(C(=O)Nc2ccc(F)nc2)CCCN1c1nc(Nc2cc(C3CC3)n[nH]2)c2cccn2n1 + COc1cc2c(Oc3ccc(NC(=O)C4(C(=O)Nc5ccc(F)cc5)CC4)cc3F)ccnc2cc1OCCCN1CCOCC1 [Foretinib] (partner 0.25 µM)
In short: as §1

[3] = compound: C[C@@]1(C(=O)Nc2ccc(F)nc2)CCCN1c1nc(Nc2cc(C3CC3)n[nH]2)c2cccn2n1 + CS(=O)(=O)N1CCN(Cc2cc3nc(-c4cccc5[nH]ncc45)nc(N4CCOCC4)c3s2)CC1 [Pictilisib] (partner 1 µM)
In short: as §1

Cell Line	relative viability (Motesanib + Dasatinib; first compound 0.01 µM)	relative viability (Motesanib + Dasatinib; first compound 0.03162 µM)	relative viability (Motesanib + Dasatinib; first compound 0.1 µM)	relative viability (Motesanib + Dasatinib; first compound 0.3162 µM)	relative viability (Motesanib + Dasatinib; first compound 1 µM)	relative viability ([1]; first compound 0.04 µM)	relative viability ([1]; first compound 0.1265 µM)	relative viability ([1]; first compound 0.4 µM)	relative viability ([1]; first compound 1.265 µM)	relative viability ([2]; first compound 0.04 µM)	relative viability ([2]; first compound 0.1265 µM)	relative viability ([2]; first compound 0.4 µM)	relative viability ([2]; first compound 1.265 µM)	relative viability ([3]; first compound 0.04 µM)	relative viability ([3]; first compound 0.1265 µM)	relative viability ([3]; first compound 0.4 µM)	relative viability ([3]; first compound 1.265 µM)
NCI-H522	0.754	0.835	0.921	0.862	0.864	0.692	0.696	0.595	0.586								
NCI-H838	0.301	0.274	0.333	0.307	0.391	0.496	0.46	0.346	0.36	1.08	0.819	0.631	0.887	0.514	0.379	0.263	0.365
SW 900	0.545	0.714	0.858	0.611	0.461	0.764	0.805	0.808	0.572	0.705	0.694	0.558	0.816				
A549										0.891	0.659	0.582	0.272	0.283	0.292	0.172	0.148
A-427	0.606	0.724	0.663	0.721	0.81	0.644	0.548	0.537	0.579	1.19	0.988	0.785	1.15	0.79	0.679	0.739	0.705
NCI-H1792		0.749	0.808	0.953	0.767	0.343	0.188	0.145	0.211					0.257	0.266	0.201	0.318
LCLC-97TM1	0.838	0.801	0.797	0.86	0.773	0.232	0.0949	0.0995	0.13	0.31	0.292	0.278	0.499	0.139	0.151	0.159	0.136
NCI-H1703										0.294	0.303	0.309	0.273	0.25	0.224	0.227	0.213
LCLC-103H	0.432	0.444	0.44	0.504	0.52	0.668	0.613	0.62	0.69	0.597	0.491	0.422	0.637	0.501	0.497	0.366	0.441
PC-3 [JPC-3]	0.845	0.989	0.974	1.04	0.974	0.628	0.441	0.513	0.603	1.08	1.02	0.959	1.34	0.784	0.595	0.708	0.644
BEN	0.286	0.342	0.333	0.325	0.343	1.07	1.01	1.04	0.979	0.918	0.649	0.678	0.536	0.614	0.573	0.606	0.614

Source: the supplement of paper PMC10307832
